In the test the test system is L1210 leukemia ip in BDF1 mice, survival T/C. Briefly: NCI In Vivo Anticancer Drug Screen. Data for tumor model L1210 Leukemia (intraperitoneal) in B6D2F1 (BDF1) mice. As to conditions: endpoint: mean survival time, higher = longer survival. The procedure, abridged:
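Each compound was tested against a transplantable tumor grown in mice. The endpoint was survival, with treated animals benchmarked against vehicle controls as a simple ratio.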

[1] abbreviates: dose: 100.0 mg/kg/injection, schedule: Q01DX009 (ip), vehicle: Klucel (hydroxypropylcellulose) (HPC).
Where [2] appears, read: dose: 100.0 mg/kg/injection, schedule: Q04DX003 (ip), vehicle: Klucel (hydroxypropylcellulose) (HPC).
The mark [3] stands for this setting: dose: 200.0 mg/kg/injection, schedule: Q01DX009 (ip), vehicle: Klucel (hydroxypropylcellulose) (HPC).
[4] abbreviates: dose: 200.0 mg/kg/injection, schedule: Q04DX003 (ip), vehicle: Klucel (hydroxypropylcellulose) (HPC).
The mark [5] stands for this setting: dose: 400.0 mg/kg/injection, schedule: Q01DX009 (ip), vehicle: Klucel (hydroxypropylcellulose) (HPC).
The mark [6] stands for this setting: dose: 400.0 mg/kg/injection, schedule: Q04DX003 (ip), vehicle: Klucel (hydroxypropylcellulose) (HPC).
Where [7] appears, read: dose: 25.0 mg/kg/injection, schedule: Q01DX009 (ip), vehicle: saline.
The mark [8] stands for this setting: dose: 50.0 mg/kg/injection, schedule: Q01DX009 (ip), vehicle: saline.
Where [9] appears, read: dose: 100.0 mg/kg/injection, schedule: Q04DX003 (ip), vehicle: saline.
[10] abbreviates: dose: 100.0 mg/kg/injection, schedule: Q04DX002 (ip), vehicle: saline with Tween-80.
[11] abbreviates: dose: 200.0 mg/kg/injection, schedule: Q04DX002 (ip), vehicle: saline with Tween-80.
Setting [12] is: dose: 100.0 mg/kg/injection, schedule: Q01DX001 (ip), vehicle: saline.
[13] abbreviates: dose: 200.0 mg/kg/injection, schedule: Q01DX001 (ip), vehicle: saline.
Setting [14] is: dose: 100.0 mg/kg/injection, schedule: Q04DX003 (ip), vehicle: saline with Tween-80.
[15] abbreviates: dose: 200.0 mg/kg/injection, schedule: Q04DX003 (ip), vehicle: saline with Tween-80.
Setting [16] is: dose: 400.0 mg/kg/injection, schedule: Q04DX003 (ip), vehicle: saline with Tween-80.

The structures appear in SMILES notation. Several values for one entry are separate records, joined by “and”; a condition that tells them apart may be missing. Identical values can stand only once. Toxic doses and inconclusive results are not listed.

With `CC(=N\N=C(N)N)/C(N=Nc1ccc(S(N)(=O)=O)cc1)=N\N=C(N)N`, the T/C by setting is: (dose: 15.0 mg/kg/injection, schedule: Q01DX Z (ip), vehicle: carboxymethylcellulose (CMC)) 105 % of control; (dose: 30.0 mg/kg/injection, schedule: Q01DX Z (oral), vehicle: carboxymethylcellulose (CMC)) 96 % of control and 102 % of control; (dose: 60.0 mg/kg/injection, schedule: Q01DX Z (ip), vehicle: carboxymethylcellulose (CMC)) 160 % of control and 168 % of control and 184 % of control; (dose: 60.0 mg/kg/injection, schedule: Q01DX Z (oral), vehicle: carboxymethylcellulose (CMC)) 109 % of control and 120 % of control; (dose: 120.0 mg/kg/injection, schedule: Q01DX Z (oral), vehicle: carboxymethylcellulose (CMC)) 113 % of control.

Consider `CC(=O)OCC(COC(C)=O)=C1N=C(c2ccccc2)OC1=O`, for which the T/C is, setting by setting: under setting [1], 103 % of control; under setting [2], 95 % of control; under setting [3], 106 % of control; under setting [4], 95 % of control; under setting [5], 107 % of control; under setting [6], 97 % of control.

Regarding `CC(C)n1ncc2c(N)ncnc21`, the T/C runs as follows: (dose: 7.5 mg/kg/injection, schedule: Q01DX001 (ip), vehicle: saline) 107 % of control; (dose: 7.5 mg/kg/injection, schedule: Q04DX003 (ip), vehicle: saline) 100 % of control; (dose: 15.0 mg/kg/injection, schedule: Q01DX001 (ip), vehicle: saline) 100 % of control; (dose: 15.0 mg/kg/injection, schedule: Q04DX003 (ip), vehicle: saline) 97 % of control; (dose: 30.0 mg/kg/injection, schedule: Q01DX001 (ip), vehicle: saline) 100 % of control; (dose: 30.0 mg/kg/injection, schedule: Q04DX003 (ip), vehicle: saline) 98 % of control.

`N=C(N)SCc1ccc(C(=O)Oc2ccc([N+](=O)[O-])cc2)cc1`: the T/C is, setting by setting: under setting [7], 97 % of control; under setting [8], 100 % of control and 103 % of control; (dose: 100.0 mg/kg/injection, schedule: Q01DX009 (ip), vehicle: saline) 106 % of control; under setting [9], 101 % of control; (dose: 200.0 mg/kg/injection, schedule: Q04DX003 (ip), vehicle: saline) 98 % of control.

For the molecule `COc1cc2oc3cc(C)oc(=O)c3c2cc1OC`, the T/C under setting [10] is 106 % of control; the T/C under setting [11] is 95 % of control; the T/C (dose: 400.0 mg/kg/injection, schedule: Q04DX002 (ip), vehicle: saline with Tween-80) is 103 % of control.

Regarding `C[C@]12CC[C@@H]3c4ccc(OCC(=O)O)cc4CC[C@H]3[C@@H]1CCC2=O`, the T/C by setting is: (dose: 75.0 mg/kg/injection, schedule: Q01DX009 (ip), vehicle: Klucel (hydroxypropylcellulose) (HPC)) 97 % of control; (dose: 150.0 mg/kg/injection, schedule: Q01DX009 (ip), vehicle: Klucel (hydroxypropylcellulose) (HPC)) 90 % of control.

Regarding `CCCCCCCCCCOC(=O)c1ccccn1`, the T/C by setting is: under setting [12], 93 % of control; under setting [13], 87 % of control.

For the molecule `O=C(O)c1cccnn1`, the T/C is, setting by setting: under setting [12], 104 % of control; under setting [13], 97 % of control.

In the case of `CCC1(CCCCCCC(=O)CC(C)=O)OCCO1`, the T/C is, setting by setting: under setting [1], 105 % of control; under setting [3], 104 % of control; under setting [5], 91 % of control.

On to `Cn1c2c(c3ccccc31)C(=C(c1ccccc1)c1ccccc1)c1ccccc1-2`, for which the T/C runs as follows: under setting [10], 87 % of control; under setting [11], 87 % of control.

`CCCCCCCCCCCCCCOc1ccc(C=O)cc1OC`: the T/C is, setting by setting: under setting [2], 96 % of control; under setting [4], 93 % of control; under setting [6], 91 % of control.

Turning to `N#CC(C#N)=NNc1ccc(S(=O)(=O)O)cc1`, the T/C was 94 % of control under setting [14], 107 % of control under setting [15] and 102 % of control under setting [16].

With `CCCCCCOP(=O)(N1CC1)N1CC1`, the T/C is, setting by setting: (dose: 0.62 mg/kg/injection, schedule: Q01DX001 (ip), vehicle: saline) 102 % of control; (dose: 1.25 mg/kg/injection, schedule: Q01DX001 (ip), vehicle: saline) 100 % of control; (dose: 2.5 mg/kg/injection, schedule: Q01DX001 (ip), vehicle: saline) 103 % of control; (dose: 5.0 mg/kg/injection, schedule: Q01DX001 (ip), vehicle: saline) 103 % of control; (dose: 10.0 mg/kg/injection, schedule: Q01DX001 (ip), vehicle: saline) 152 % of control; (dose: 20.0 mg/kg/injection, schedule: Q01DX001 (ip), vehicle: saline) 201 % of control. Also, the T/C was 287 % of control (dose: 40.0 mg/kg/injection, schedule: Q01DX001 (ip), vehicle: saline); 267 % of control (dose: 75.0 mg/kg/injection, schedule: Q01DX001 (ip), vehicle: saline); 247 % of control (dose: 150.0 mg/kg/injection, schedule: Q01DX001 (ip), vehicle: saline).

As for `CN(C)CCCC1(C#N)c2ccccc2CCc2ccccc21`, the T/C was 102 % of control (dose: 6.25 mg/kg/injection, schedule: Q01DX009 (ip), vehicle: saline); 105 % of control (dose: 12.5 mg/kg/injection, schedule: Q01DX009 (ip), vehicle: saline); 103 % of control under setting [7]; 100 % of control (dose: 25.0 mg/kg/injection, schedule: Q04DX003 (ip), vehicle: saline); 113 % of control under setting [8]; 100 % of control (dose: 50.0 mg/kg/injection, schedule: Q04DX003 (ip), vehicle: saline). Moreover, under setting [9], the T/C was 102 % of control.

As to `N#Cc1nc2c(nc1C#N)-c1ccccc1/C2=C1/C(=O)Cc2ccccc21`, for the setting “dose: 25.0 mg/kg/injection, schedule: Q04DX002 (ip), vehicle: other”, the T/C was 93 % of control and 90 % of control.

For `Brc1ccccc1C[n+]1cccc2ccccc21`, where the note is “dose: 75.0 mg/kg/injection, schedule: Q01DX001 (ip), vehicle: other”, the T/C is 101 % of control.

With `CCCCCCCCCCCCCCCCOB(OCCCCCCCCCCCCCCCC)OCCCCCCCCCCCCCCCC`, the T/C is 91 % of control under setting [2], 96 % of control under setting [4] and 94 % of control under setting [6].

For `O=C(Nc1ccc([N+](=O)[O-])cc1)c1ccc([N+](=O)[O-])cc1`, the T/C under setting [14] was 94 % of control, the T/C under setting [15] was 94 % of control and the T/C under setting [16] was 89 % of control.

With `O=C1/C(=C/c2ccccn2)CCc2cc(Cl)ccc21`, the T/C (dose: 100.0 mg/kg/injection, schedule: Q04DX003 (ip), vehicle: carboxymethylcellulose (CMC)) was 93 % of control; the T/C (dose: 200.0 mg/kg/injection, schedule: Q04DX003 (ip), vehicle: carboxymethylcellulose (CMC)) is 96 % of control; the T/C (dose: 400.0 mg/kg/injection, schedule: Q04DX003 (ip), vehicle: carboxymethylcellulose (CMC)) was 96 % of control.

As for `CC(=O)OCC1OC(n2cnc3c(C)nc(F)nc32)C(OC(C)=O)C1OC(C)=O` (stereo unspecified), the T/C (dose: 50.0 mg/kg/injection, schedule: Q01DX001 (ip), vehicle: other) is 105 % of control; the T/C (dose: 100.0 mg/kg/injection, schedule: Q01DX001 (ip), vehicle: other) was 113 % of control; the T/C (dose: 200.0 mg/kg/injection, schedule: Q01DX001 (ip), vehicle: other) was 103 % of control; the T/C (dose: 400.0 mg/kg/injection, schedule: Q01DX001 (ip), vehicle: other) is 108 % of control.

With `CSc1ccc(SCCOC(=O)Nc2ccc(Cl)cc2Cl)cc1`, the T/C runs as follows: (dose: 50.0 mg/kg/injection, schedule: Q01DX009 (ip), vehicle: saline with Tween-80) 91 % of control; (dose: 100.0 mg/kg/injection, schedule: Q01DX009 (ip), vehicle: saline with Tween-80) 93 % of control; (dose: 200.0 mg/kg/injection, schedule: Q01DX009 (ip), vehicle: saline with Tween-80) 98 % of control.

The values are drawn from PubChem BioAssay AID248 (DTP/NCI, 2004).
